Experimental findings from patent publication US10596216B2, “Use of a Withania extract for the treatment of amyloid-related diseases” (Ethnodyne, priority 2015, dated 2020) are described below.

The data set relates to rat primary cortical cultures. The experiment in a line: Neuroprotective effect following exposure to glutamate (Example 12). It is filed as cell-based. The following applies: glutamate 40 μM, 20 min, primary cortical neuron culture. The protocol: This study investigated the neuroprotective effect of the composition WEB-2 on rat primary cortical cultures following exposure to glutamate (40 μM, 20 min application), an in vitro AD model.
Pregnant Wistar females rat (JanvierLabs, France) at 15 days of gestation were killed by cervical dislocation. The foetuses were prepared as in example 11.
Once obtained, the cells were seeded at a density of 30,000 per well in 96-well plates precoated with poly-L-lysine (Batch: 3102256, Corning Biocoat) and were cultured at 37° C. in an air (95%)-CO2 (5%) incubator. The medium was changed every 2 days. The cortical neurons were intoxicated with glutamate solution.
On day 13 after culture, glutamate (Batch: 061M0030V, Sigma) was added into cell culture to a final concentration of 40 μM diluted in control medium for 20 min. After 20 min, the cells were washed-out and new fresh medium containing or not WEB-2 was added for 48 h additional time. […]
The immunolabeled cultures were automatically examined with ImageXpress equipped with a LED at ×20 magnification. For each condition (6 culture wells), 30 automatically fields per well (representing ˜80% of the total surface of the well) were analyzed. The total number of neurons and neurite length were automatically analyzed using MetaXpress software.

For the molecule `N[C@@H](CCC(=O)O)C(=O)O` [Glutamate, glutamate], the “neurite network loss induced” value was “neurite network loss” and the neuronal death induced result is “significant neuronal death”.
